Experimental data from patent US20080020421A1, “METHODS OF SCREENING AGENTS FOR CYTOTOXIC AND ANTIMICROBIAL ACTIVITY” (priority 2006, published 2008).

Columns and labels:
HeLa-GFP cells [1] = assay: Fluorescent microscopy cytotoxicity assay (LD50 determination, FIG. 2); format: cell-based, human; conditions: for approximate LD50 in HeLa-GFP: various concentrations, cell counts under fluorescent microscopy, FIG. 2
Experimental: The concentration of the test compounds (μM) are shown within the figure. Horizontal bar indicates the 50% toxicity range. H2O2 (+control, 1 mM) was used as a positive control (+; 100% cytolysis) while cells treated with DMSO (1 μl; solvent for all quinones) was used as the negative (−) control.
Fluorescent microscopy cytotoxicity assays. HeLa-GFP cells were plated on 24-well plates and left overnight to adhere. Different dilutions of the quinones were then added to each well (indicated in the legend) using the same concentrations of the positive and negative controls as described in the previous assay. Cell counts were done under fluorescent microscopy to determine cytotoxicity. The status of the fluorescent GFP-nuclei and the typical morphological characteristics of cells undergoing cell death were taken into account when differentiating between dying or viable cells as previously described (Montoya et al., 2004).

HeLa-GFP cells [2] = assay: HeLa-GFP fluorometric cytotoxicity assay; conditions: for Percent-GFP-fluorescence after incubation with test compounds, HeLa-GFP (2 μg/ml) / Percent-GFP-fluorescence after incubation with test compounds, HeLa-GFP (20 μg/ml): 18 h incubation, relative to untreated (DMSO) cells; for toxicity to HeLa-GFP cells (in words): loss of GFP signal, Table 1 screen
Experimental: Cell culture. HeLa-GFP cells were cultured in DMEM media supplemented with 10% heat-inactivated newborn calf serum as previously described (Montoya et al., 2004). Stock cultures were prewashed twice with PBS before the treatment of trypsin for cell resuspension and subsequently re-plated at the concentration of 4,000 cells/well.
HeLa-GFP fluorometric cytotoxicity assay. All cell lines were seeded in clear-bottomed 96-well assay plates (3603, Costar, Corning Inc., Corning, N.Y.) in order to minimized background fluorescence. HeLa cells were grown in a total volume of 0.2 ml of medium and incubated overnight for proper cell attachment. The quinone compounds were then added to each well (in triplicate) and then incubated for a period of 18 hr. For the determination of fluorescence, the assay plates were then read using the Fluoroskan Ascent F1 fluorometer (Thermo Electron Corp.) set at the excitation and emission parameters of 485 and 518 nm, respectively. Since the HeLa-GFP cell line is adherent, the fluorometer was set to read from the bottom of the plate for closer proximity to the cells. Before the readings were performed, all supernatant media was removed to avoid any background interference and thus enhancing the sensitivity of the optical readings. For calibration purposes, three untreated control wells were used to determine the maximum level of fluorescence (100%). […] As a cytolysis control (complete loss of fluorescence), three wells containing cells were exposed to 0.2 ml of deionized water. These controls were then used to calculate the percent loss of GFP signal after compound exposure as determined by comparison with control wells containing cells that were not exposed to the chemical agent (see data analysis below).
Data analysis. All compounds, including controls, were screened in triplicate. The average of the three wells that were used for the removal of the background fluorescence (wells containing water for the HeLa-GFP assays and wells containing media alone for bacteria) was subtracted from each individual well. The mean of these triplicate values for each compound was then obtained. These mean values were then divided by the average obtained for maximum fluorescence (cells not treated with compound) and then multiplied by 100 to obtain the percentage values as shown in Table 1.

E. coli-GFP = assay: Toxicity assay with GFP-expressing E. coli; conditions: for Percent-GFP-fluorescence after incubation with test compounds, E. coli-GFP (20 μg/ml): 10 h incubation, relative to untreated bacteria; for toxicity to E. coli (in words): loss of GFP signal, Table 1 screen
Experimental: (§1) E. coli-GFP cells were grown in LB broth media while the MAC104 M. avium strain was grown in 7H9-ADC media.
(§2) Toxicity assays with GFP-expressing bacteria. E. coli was transformed with a GFP-expression plasmid that also confers tetracycline resistance was kindly provided by Dr. David Schneider (Elrod-Erickson et al., 2000). […] Both bacterial strains were grown and selected based on antibiotic resistance and GFP expression. All toxicity assays were performed using the plates and fluorometric parameters described in the previous section. Bacterial cell suspensions were seeded in a final volume of 100 μl at an optical density of 0.05 and 0.25 at 650 nm, for E. coli-GFP and M. avium-GFP, respectively. After exposure to the test compounds, assay plates were incubated at 37° C. in a humid environment to prevent dehydration in the wells. Unlike the HeLa-GFP assays, reading were performed without removing the supernatants to avoid loss of cells. Several untreated wells containing bacteria and media were used to determine the maximum level of fluorescence. Several wells containing media alone (no bacteria) were included in each assay to remove background fluorescence.
(§3) Data analysis. All compounds, including controls, were screened in triplicate. The average of the three wells that were used for the removal of the background fluorescence (wells containing water for the HeLa-GFP assays and wells containing media alone for bacteria) was subtracted from each individual well. The mean of these triplicate values for each compound was then obtained.

[3] = tested on: M. avium-GFP (strain MAC104); assay: Toxicity assay with GFP-expressing M. avium; conditions: for Percent-GFP-fluorescence after incubation with test compounds, M. avium-GFP (20 μg/ml): 18 h incubation, relative to untreated bacteria; for toxicity to M. avium (in words): loss of GFP signal, Table 1 screen
Experimental: as §1, §2, §3

SMILES	cytolysis (positive control) (HeLa-GFP cells [1]; 1 mM, HeLa-GFP) [%]	approximate LD50 in HeLa-GFP (HeLa-GFP cells [1]) [µM]	Percent-GFP-fluorescence after incubation with test compounds, HeLa-GFP (2 μg/ml) (HeLa-GFP cells [2]) [%]	Percent-GFP-fluorescence after incubation with test compounds, HeLa-GFP (20 μg/ml) (HeLa-GFP cells [2]) [%]	toxicity to HeLa-GFP cells (in words) (HeLa-GFP cells [2])	toxicity to HeLa-GFP cells (in words) (HeLa-GFP cells [2]; listed as Plumbagin)	Percent-GFP-fluorescence after incubation with test compounds, E. coli-GFP (20 μg/ml) (E. coli-GFP) [%]	toxicity to E. coli (in words) (E. coli-GFP)	toxicity to E. coli (in words) (E. coli-GFP; listed as Plumbagin)	Percent-GFP-fluorescence after incubation with test compounds, M. avium-GFP (20 μg/ml) [3] [%]	toxicity to M. avium (in words) [3]	toxicity to M. avium (in words) ([3]; listed as Plumbagin)
OO [Compound H2O2, H2O2]	100	–	–	–	–	–	–	–	–	–	–	–
CC1=CC(=O)c2c(O)cccc2C1=O [Compound Q1, plumbagin, reference compound]	–	~3.0	13.0	9.0	most toxic	third-most toxic to HeLa cells	1.0	most toxic	most toxic compound to E. coli	7.0	most toxic	most toxic to M. avium
O=C1C=CC(=O)c2c(O)ccc(O)c21 [Compound Q3, naphthazarin, reference compound]	–	~3.0	0	4.0	highly toxic	–	41.0	highly toxic	–	38.0	highly toxic	–
CCOC(=O)c1ccccc1C1=C(CN(C(=O)OC(C)(C)C)C(=O)OC(C)(C)C)C(=O)c2ccccc2C1=O [Compound Q35]	–	–	85.0	58.0	–	–	104.0	–	–	108.0	–	–
CCOC(=O)c1cccc(C2=C(CNC(=O)OC(C)(C)C)C(=O)c3ccccc3C2=O)c1 [Compound Q36]	–	–	89.0	59.0	–	–	100.0	–	–	93.0	–	–
CCOC(=O)c1cccc(C2=C(CN(C(=O)OC(C)(C)C)C(=O)OC(C)(C)C)C(=O)c3ccccc3C2=O)c1 [Compound Q37]	–	–	90.0	62.0	–	–	105.0	–	–	92.0	–	–
CCOC(=O)c1ccc(C2=C(CNC(=O)OC(C)(C)C)C(=O)c3ccccc3C2=O)cc1 [Compound Q38]	–	–	81.0	61.0	–	–	103.0	–	–	119.0	–	–
CCOC(=O)c1ccc(C2=C(CN(C(=O)OC(C)(C)C)C(=O)OC(C)(C)C)C(=O)c3ccccc3C2=O)cc1 [Compound Q39]	–	–	88.0	62.0	–	–	108.0	–	–	96.0	–	–
